From patent publication US9597336B2, “Therapy for treatment of chronic degenerative brain diseases and nervous system injury” (THE REGENTS OF THE UNIVERSITY OF CALIFORNIA, priority 2004, dated 2017)
Entries after “also recorded” stand apart in the source; their conditions may differ.

What was measured:
[1] = tested on: gangliosides GM1, GM2, and GM3 in the brain; assay: Ganglioside accumulation in brain of allopregnanolone-treated Niemann Pick type-C mice; assay type: in vivo, mouse
Method: (§1) The materials and methods used for the following experiments have been described in Griffin L. D., et al., Nature Medicine 10: 704-711 (2004). This reference is hereby incorporated by reference in its entirety.
Mice were given a single injection of allopregnanolone, prepared in 20% βcyclodextrin in phosphate buffered saline, at a concentration of 25 mg/kg. The injection was on day 7 of life (P7, postnatal day 7). Concentrations of gangliosides GM1, GM2, GM3, were measured as well as other lipids such as ceramides and cerebrosides.

[2] = tested on: brain cytokines (TGFβ, IL1β); assay: Brain cytokine concentrations by ELISA in NP-C mice; assay type: in vivo, mouse; conditions: adult NP-C mice treated at day 7, vs untreated NP-C mice
Method: as §1
(§2) Mice were again given a single injection of allopregnanolone, prepared in 20% β-cyclodextrin in phosphate buffered saline, at a concentration of 25 mg/kg. The injection was on day 7 of life (P7, postnatal day 7). Inflammation was measured by assessing the number of CD4^+ CD8^+, MAC1^+, and MHCII^+ cells, using immunocytochemistry. Concentrations of brain cytokines were also measured, using by enzyme linked immunoabsorbent (ELISA) assays.

[3] = tested on: CD4+, CD8+, MAC1+ and MHCII+ cells in brain; assay: Immunocytochemistry of inflammatory cells in brains of NP-C mice; assay type: in vivo, mouse
Method: as §1, §2

[4] = tested on: Niemann Pick type-C mice; assay: Allopregnanolone, T0901317 and their combination in NP-C mice: lifespan, rotorod; assay type: in vivo, mouse; conditions: for lifespan (mean): allopregnanolone 25 mg/kg s.c. single injection at P7, T0901317 50 mg/kg/day from day 18; for onset of symptoms: rotorod trials; for age at which loss of motor function begins: untreated begin at 35 days
Method: as §1
Mice were given a single injection of allopregnanolone, prepared in 20% β-cyclodextrin in phosphate buffered saline, at a concentration of 25 mg/kg. The injection was on day 7 of life (P7, postnatal day 7). T0901317 treatment was started on day 18 (50 mg/kg/day) in chow. Efficacy was assessed by measuring body weight, and neurological symptoms, using a rotorod test. Efficacy was further assessed by measuring lifespan.

[5] = tested on: cerebellar astrocytes from P3 cerebella; assay: Neurotrophin secretion in cultured cerebellar astrocytes (ELISA); assay type: cell-based, mouse
Method: as §1
Pure cultures of cerebellar astrocytes from P3 cerebella were cultured for 1-3 days±10 nM allopregnanolone, and NGF was assayed every 24 hr by ELISA.

[6] = tested on: Niemann Pick type-C mice; assay: Ganaxolone treatment of NP-C mice: lifespan, weight, locomotor skills; assay type: in vivo, mouse
Method: as §1
Mice were given a single injection of ganaxolone, prepared in 20% β-cyclodextrin in phosphate buffered saline, at a concentration of 25 mg/kg. The injection was on day 7 of life (P7, postnatal day 7).
Efficacy of treatment was assessed by measuring body weight, neurological symptoms, using behavioral tests such as wire hang test, rope climbing test, walking on an mesh inclined plane, and walking on a horizontal surface, measuring coordination, use of all 4 limbs, posture, tail placement. Efficacy was also assessed by measuring lifespan. Results of these experiments are summarized below, and are shown graphically in FIG. 7.

[7] = adult (60-day old) NP-C mice treated at P7

CC(=O)[C@H]1CC[C@H]2[C@@H]3CC[C@H]4C[C@H](O)CC[C@]4(C)[C@H]3CC[C@]12C [allopregnanolone]
amount of the gangliosides GM1, GM2, and GM3 in brain ([1]; NP-C mice, single injection 25 mg/kg at P7, compared with untreated controls): reduced | degree of reduction in the gangliosides by timing of treatment ([1]; NP-C mice, treatment at postnatal day 7 compared with postnatal day 10): greater reduction | GM1 or GM2 immunostaining, cerebellum [1, 7]: only slight immunostaining | GM1 or GM2 immunostaining, thalamus/hypothalamus [1, 7]: only very slight immunostaining | brain cytokine concentrations (TGFβ and IL1β) [2]: substantial reduction; also recorded: substantially reduced | apoptotic neurons in the brain ([3]; NP-C mice, 25 mg/kg single injection at P7): substantial reduction | number of T cells and activated macrophages in brain ([3]; NP-C mice, 25 mg/kg single injection at P7, vs untreated controls): significant reduction | increase in immunostaining for CD4 and CD8 T cells, cerebellum [3, 7]: absent | increase in immunostaining for CD4 and CD8 T cells, thalamus/hypothalamus [3, 7]: absent | immunostaining for MAC1 and MHC II (activated macrophages), thalamus ([3]; adult (60-day old) NP-C mice treated at day 7, vs untreated NP-C mice): substantially reduced | lifespan (mean) [4]: 112 days | onset of symptoms [4]: delayed | age at which loss of motor function begins ([4]; rotorod): 49 days | production of NGF ([5]; NP-C mouse cerebellar astrocytes cultured 1-3 days with 10 nM, vs untreated control cells): increases | concentrations of the neurotrophins NGF and BDNF ([5]; cerebellar cells in culture): increases

CC(=O)[C@H]1CC[C@H]2[C@@H]3CC[C@H]4C[C@](C)(O)CC[C@]4(C)[C@H]3CC[C@]12C [ganaxolone]
weight loss and tremor [6]: delays | lifespan (average) ([6]; single injection 25 mg/kg at P7, untreated 67 (±10) days): 118 days | duration of the loss of motor function ([6]; single injection at P7, untreated 3-4 weeks): 5 weeks | age at which loss of motor function (locomotion and coordination) begins ([6]; single injection at P7, untreated begin at 6-7 weeks): 10 weeks | age at which weight loss begins ([6]; single injection at P7, untreated begin at 6 weeks): 10 weeks | rate of weight loss ([6]; single injection at P7, vs untreated NP-C mice): more slowly

O=S(=O)(c1ccccc1)N(CC(F)(F)F)c1ccc(C(O)(C(F)(F)F)C(F)(F)F)cc1 [T0901317]
lifespan (mean) [4]: 80 days | course of loss of motor function / decline in symptoms ([4]; rotorod): blunted | onset of symptoms [4]: delayed | age at which loss of motor function begins ([4]; rotorod): 42 days
